What was measured:
Assay in all cases: relative viability (nuclei count vs DMSO), 5 days (fraction); higher = more cells survive
[1] = compound: CN[C@@H]1C[C@H]2O[C@@](C)([C@@H]1OC)n1c3ccccc3c3c4c(c5c6ccccc6n2c5c31)C(=O)NC4 [Staurosporine] + C[C@@H](Oc1cc(-c2cnn(C3CCNCC3)c2)cnc1N)c1c(Cl)ccc(F)c1Cl [Crizotinib] (partner 1 µM)
In short: (§1)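 Relative viability equals treated-well nuclei counts divided by vehicle-well nuclei counts. Counts came from 4× images of lung cancer cell lines grown in 1536-well plates for 5 days after pin-tool dosing on the day after seeding. Dosing used one drug alone or a fixed anchor-drug dose plus five library-drug doses (not always all listed) in √10 steps, and values are medians of duplicate plates.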

[2] = compound: O=c1[nH]cc(F)c(=O)[nH]1 [5-Fluorouracil] + CCNC(=O)c1noc(-c2cc(C(C)C)c(O)cc2O)c1-c1ccc(CN2CCOCC2)cc1 [Luminespib] (partner 0.01 µM)
In short: as §1

[3] = compound: O=c1[nH]cc(F)c(=O)[nH]1 [5-Fluorouracil] + C[C@@H](Oc1cc(-c2cnn(C3CCNCC3)c2)cnc1N)c1c(Cl)ccc(F)c1Cl [Crizotinib] (partner 1 µM)
In short: as §1

[4] = compound: O=c1[nH]cc(F)c(=O)[nH]1 [5-Fluorouracil] + Nc1nc2[nH]cc(CCc3ccc(C(=O)N[C@@H](CCC(=O)O)C(=O)O)cc3)c2c(=O)[nH]1 [Pemetrexed] (partner 0.2 µM)
In short: as §1

| Cell Line | relative viability ([1]; first compound 0.005 µM) | relative viability ([1]; first compound 0.01581 µM) | relative viability ([1]; first compound 0.05 µM) | relative viability ([1]; first compound 0.1581 µM) | relative viability ([1]; first compound 0.5 µM) | relative viability ([2]; first compound 0.02 µM) | relative viability ([2]; first compound 0.2 µM) | relative viability ([2]; first compound 0.6325 µM) | relative viability ([2]; first compound 2 µM) | relative viability ([3]; first compound 0.02 µM) | relative viability ([3]; first compound 0.2 µM) | relative viability ([3]; first compound 0.6325 µM) | relative viability ([3]; first compound 2 µM) | relative viability ([4]; first compound 0.02 µM) | relative viability ([4]; first compound 0.2 µM) | relative viability ([4]; first compound 0.6325 µM) | relative viability ([4]; first compound 2 µM) |
| --- | --- | --- | --- | --- | --- | --- | --- | --- | --- | --- | --- | --- | --- | --- | --- | --- | --- |
| NCI-H596 | 1.16 | 0.959 | 0.447 | 0.189 | 0.156 | 1 | 0.728 | 0.726 | 0.542 | 0.971 | 0.788 | 0.64 | 0.578 | 0.547 | 0.524 | 0.486 | 0.435 |
| NCI-H647 | 0.53 | 0.295 | 0.162 | 0.0569 | 0.0579 | 0.166 | 0.157 | 0.243 | 0.136 | 1.13 | 1.1 | 0.941 | 0.692 | 0.187 | 0.182 | 0.176 | 0.164 |
| NCI-H650 | 0.443 | 0.333 | 0.271 | 0.196 | 0.151 | 0.766 | 0.533 | 0.348 | 0.277 | 0.61 | 0.589 | 0.46 | 0.421 | 0.762 | 0.649 | 0.36 | 0.317 |
| NCI-H661 | 1.03 | 0.9 | 0.81 | 0.501 | 0.415 | 0.942 |  | 0.955 | 0.888 | 0.973 | 1.11 | 1.05 | 1.02 | 0.998 | 0.905 | 0.947 | 0.883 |
| NCI-H838 | 0.259 | 0.179 | 0.175 | 0.168 | 0.127 | 0.261 | 0.245 | 0.209 | 0.16 | 0.873 | 0.809 | 0.498 | 0.297 | 0.261 | 0.253 | 0.257 | 0.249 |
| NCI-H1355 | 0.834 | 0.727 | 0.366 | 0.258 | 0.234 | 0.644 | 0.57 | 0.287 | 0.246 | 1.04 | 0.672 | 0.373 | 0.266 | 0.928 | 0.762 | 0.311 | 0.257 |
| NCI-H1437 | 0.924 | 0.702 |  | 0.545 | 0.449 | 0.706 | 0.324 | 0.313 | 0.202 |  | 0.257 | 0.2 | 0.155 | 0.269 | 0.271 | 0.208 | 0.262 |
| NCI-H1563 | 0.696 | 0.559 | 0.635 | 0.587 | 0.503 | 0.49 | 0.478 | 0.499 | 0.488 | 0.798 | 0.806 | 0.892 | 0.699 | 0.711 | 0.924 | 0.786 | 0.732 |
| NCI-H1650 | 0.537 | 0.389 | 0.242 | 0.197 | 0.106 | 0.213 | 0.185 | 0.246 | 0.211 | 0.859 | 0.801 | 0.505 | 0.367 | 0.362 | 0.335 | 0.353 | 0.286 |
| NCI-H1651 | 0.945 | 0.765 | 0.575 | 0.549 | 0.385 | 1.02 | 0.764 | 0.588 | 0.466 | 0.825 | 0.838 | 0.452 | 0.38 | 0.502 | 0.457 | 0.3 | 0.305 |
| NCI-H1666 | 0.536 | 0.528 | 0.418 | 0.236 | 0.2 | 0.992 | 0.639 | 0.419 | 0.44 | 0.94 | 0.406 | 0.366 | 0.344 | 0.922 | 0.763 | 0.61 | 0.548 |
| NCI-H1734 | 0.627 | 0.4 | 0.279 | 0.165 | 0.132 | 0.173 | 0.193 | 0.198 | 0.189 | 0.709 | 0.742 | 0.533 | 0.37 | 0.419 | 0.412 | 0.401 | 0.45 |
| NCI-H1755 | 0.569 | 0.352 | 0.179 | 0.176 | 0.163 | 0.57 | 0.346 | 0.331 | 0.219 | 0.838 | 0.655 | 0.313 | 0.258 | 0.509 | 0.367 | 0.32 | 0.295 |
| NCI-H1792 |  | 0.822 | 0.418 | 0.154 | 0.16 | 0.616 | 0.439 | 0.262 | 0.182 | 1.07 | 0.943 | 0.31 | 0.164 | 0.948 | 0.569 | 0.215 | 0.191 |
| NCI-H1915 | 0.903 |  | 0.362 | 0.294 | 0.268 | 0.658 | 0.855 | 0.699 | 0.597 | 0.819 | 0.949 | 0.824 | 0.619 | 0.395 | 0.542 | 0.421 | 0.419 |
| NCI-H1944 | 1.13 |  | 0.633 | 0.666 | 0.336 | 0.73 | 0.625 | 0.3 | 0.185 | 0.993 | 0.92 | 0.392 | 0.193 | 0.523 | 0.527 | 0.249 | 0.179 |
| NCI-H1975 | 0.369 | 0.276 | 0.212 | 0.121 | 0.115 | 0.302 | 0.217 | 0.397 | 0.237 | 1 | 1.01 | 0.429 | 0.263 | 0.309 | 0.28 | 0.243 | 0.219 |

— the supplement of paper PMC10307832
